Assay results published in article PMC8243516, “Inhibition of lysosomal phospholipase A2 predicts drug-induced phospholipidosis” (Journal of Lipid Research, 2021).
Read-outs that look alike come from different tables or passages of the source.

Tests used:
MDCK cells = experiment: Screening phospholipidosis assay (LipidTOX Red / NucBlue Live fluorescence ratio); details: for Ratio (15 μM): LipidTOX Red to NucBlue Live fluorescence ratio, 24 h
[1] = cited from earlier work
LPLA2 = molecular target: T1, LPLA2 (Mus musculus, UniProt Q8VEB4); experiment: LPLA2 thermal stability measurement (SYPRO Orange Tm); format: binding
T1 construct: purchased Proteos Inc. (Kalamazoo, MI)
T1 sequence (Q8VEB4 34-412): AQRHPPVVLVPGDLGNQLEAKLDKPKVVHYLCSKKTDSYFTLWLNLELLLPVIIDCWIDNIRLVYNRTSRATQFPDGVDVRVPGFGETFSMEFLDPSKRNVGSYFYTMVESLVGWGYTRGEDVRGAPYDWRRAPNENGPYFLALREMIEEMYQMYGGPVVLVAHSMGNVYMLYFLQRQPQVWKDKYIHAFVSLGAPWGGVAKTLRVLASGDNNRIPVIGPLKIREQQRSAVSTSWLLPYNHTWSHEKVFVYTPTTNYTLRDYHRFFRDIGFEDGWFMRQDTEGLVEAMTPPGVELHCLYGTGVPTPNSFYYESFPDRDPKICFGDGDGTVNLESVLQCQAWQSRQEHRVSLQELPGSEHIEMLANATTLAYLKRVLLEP

[2] = molecular target: T2, recombinant mouse LPLA2 (PLA2G15) (Mus musculus, UniProt Q8VEB4); experiment: Transacylase activity of LPLA2 (1-O-acyl-N-acetylsphingosine synthase, cell-free liposome assay); format: biochemical
T2 construct: purchased Proteos Inc. (Kalamazoo, MI)
T2 sequence (Q8VEB4 34-412): T1 sequence (Q8VEB4 34-412)

phospholipidosis [3] = details: phospholipidosis reported in vivo, species codes; Refs of Table 1; cited from earlier work
phospholipidosis [4] = details: phospholipidosis reported in vitro; Refs of Table 1; cited from earlier work
[5] = ref Pubchem and chEMBL database
[6] = LPLA2 dependent 1-O-acyl N-acetylsphingosine synthase activity, read-out: LPLA2 IC50
[7] = ref Pubchem and chEMBL databases
[8] = 1-O-acyl N-acetylsphingosine synthase activity, pH 4.5, DOPC/sulfatide liposomes, read-out: LPLA2 IC50

(ΔTm)c-(ΔTm)d, difference in melting temperature of LPLA2 alone or in the presence of drug (LPLA2; N=3 ± SD)	IC50 [2, 6]	SMILES	Ratio (15 μM) (MDCK cells)	pKa (basic) [1, 5]	other results
-1.20 ± 0.1 °C	14.9 µM	CC[C@H](NC(=O)c1c(C)c(-c2ccccc2)nc2ccccc12)c1ccccc1 [sb222200]	0.34	9.57	–
0.83 ± 0.1 °C	250 µM	NC(=O)C1(N2CCCCC2)CCN(CCCC(=O)c2ccc(F)cc2)CC1 [Pipamperone]	0.37	8.96	–
-1.85 ± 0.9 °C	300 µM	COc1ccc(C2CNC(=O)C2)cc1OC1CCCC1 (stereo not drawn) [Rolipram]	0.19	-1.9	–
0.15 ± 0.1 °C	38 µM	COc1ccc2[nH]cc(CCNC(C)=O)c2c1 [Melatonin]	0.26	-1.6	–
0.66 ± 0.2 °C	160 µM	CC(C)Cn1cnc2c(N)nc3ccccc3c21 [Imiquimod]	0.07	5.01	–
2.00 ± 0.2 °C	6.82 µM	CCCCCCCCNC(C)C(O)c1ccc(SC(C)C)cc1 (stereo not drawn) [Suloctidil]	0.66	9.76	–
1.20 ± 0.1 °C	100 µM	NNc1nncc2ccccc12 [Hydralazine]	0.6	6.4	–
-1.90 ± 02 °C	13.4 µM	Cc1nc2sccn2c(=O)c1CCN1CCC(=C(c2ccc(F)cc2)c2ccc(F)cc2)CC1 [Ritanserin]	0.19	8	–
0.94 ± 0.1 °C	231 µM	CC(=O)O[C@H]1C[C@@]2(C)[C@@H](C[C@@H](O)[C@H]3[C@@]4(C)CC[C@@H](O)[C@@H](C)[C@@H]4CC[C@@]32C)/C1=C(\CCC=C(C)C)C(=O)O [Fuscidic acid]	0.23	-0.2	–
-0.10 ± 0.0 °C	–	OCCOCCN1CCN(C(c2ccccc2)c2ccc(Cl)cc2)CC1 (stereo not drawn) [Hydroxyzine, 2-(2-{4-[(4-chlorophenyl) (phenyl)methyl]piperazin-1-yl}ethoxy)ethan-1-ol]	–	–	pKa (basic) [1, 7]: 7.82; IC50 [2, 8]: 63 µM; In Vivo PLD (phospholipidosis [3]): R
-1.45 ± 0.9 °C	5.76 µM	O=C(O)[C@@H]1C[C@@H](C2CCCCC2)CN1C(=O)CP(=O)(O)CCCCc1ccccc1 [Fosinoprilat]	0.19	-4.7	Signal in the LipidTOX assay (in words) (MDCK cells): positive signal; IC50 [2, 8]: 5.8 µM
1.30 ± 0.1 °C	12.9 µM	COCC(=O)O[C@]1(CCN(C)CCCc2nc3ccccc3[nH]2)CCc2cc(F)ccc2[C@@H]1C(C)C [Mibefradil]	1.21	9.82	–
-0.23 ± 0.1 °C	–	Cc1ccc(Cl)c(Nc2ccccc2C(=O)O)c1Cl [Meclofenamic acid]	0.52	-3.6	–
-1.05 ± 4.0 °C	61.8 µM	C[C@]12CC[C@@H]3c4ccc(O)cc4C[C@@H](CCCCCCCCC[S+]([O-])CCCC(F)(F)C(F)(F)F)[C@H]3[C@@H]1CC[C@@H]2O (stereo partly drawn) [Fulvestrant]	0.37	-0.88	–

The next lines start with the molecule.

SMILES	(ΔTm)c-(ΔTm)d, difference in melting temperature of LPLA2 alone or in the presence of drug (LPLA2; N=3 ± SD)	IC50 [2, 6]	Ratio (15 μM) (MDCK cells)	pKa (basic) [1, 5]	other results
CNCCCC12CCC(c3ccccc31)c1ccccc12 [Maprotiline, methyl(3-{tetracyclo [6.6.2.0^2,^7.0^9,^14]hexadeca-2,4,6,9,11, 13-hexaen-1-yl}propyl)amine]	–	–	–	–	pKa (basic) [1, 7]: 10.54; In Vivo PLD (phospholipidosis [3]): R
CN1CCN(CCCN2c3ccccc3Sc3ccc(C(F)(F)F)cc32)CC1 [Trifluoperazine]	–	6.87 µM	0.81	8.39	(ΔTm)c-(ΔTm)d, difference in melting temperature of LPLA2 alone or in the presence of drug (LPLA2): 0.49 ± 0.3 °C
CCC[C@@H]1C[C@@H](C(=O)NC(C(C)Cl)[C@H]2O[C@H](SC)[C@H](O)[C@@H](O)[C@H]2O)N(C)C1 (stereo partly drawn) [Clindamycin, (2S,4R)-N-{2-chloro-1-[(2R,3R,4S,5R,6R)-3,4,5-trihydroxy-6-(methylsulfanyl)oxan-2-yl]propyl}-1-methyl-4-propylpyrrolidine-2-carboxamide]	–	–	–	–	In Vitro PLD (phospholipidosis [4]): Yes; In Vivo PLD (phospholipidosis [3]): Yes
CCc1oc2ccccc2c1C(=O)c1cc(Br)c(O)c(Br)c1 [Benzbromarone, 2,6-dibromo-4-(2-ethyl-1-benzofuran-3-carbonyl)phenol]	–	–	0.5	–	In Vitro PLD (phospholipidosis [4]): Yes; pKa (basic) [1, 7]: -3.8; (ΔTm)c-(ΔTm)d, difference in melting temperature of LPLA2 alone or in the presence of drug (LPLA2): -1.40 ± 0.3 °C; IC50 ([2]; LPLA2 IC50, 1-O-acyl N-acetylsphingosine synthase activity, pH 4.5, DOPC/sulfatide liposomes): 3.8 µM
CCOC(=O)COc1ccc2c(C)c(CCN(CC)CC)c(=O)oc2c1Cl [Cloricromen]	0.24 ± 0.1 °C	285 µM	0.1	9.1	–
CCN1CCCC1CNC(=O)c1cc(S(N)(=O)=O)ccc1OC (stereo not drawn) [Sulpiride, N-[(1-ethylpyrrolidin-2-yl)methyl]-2-methoxy-5-sulfamoylbenzamide]	1.34 ± 0.9 °C	–	–	–	pKa (basic) [1, 7]: 8.4; LPLA2 inhibition (in words) ([2]; acyl transferase activity): no inhibitory activity; In Vivo PLD (phospholipidosis [3]): Yes
C=C[C@H]1C[N@@]2CC[C@H]1C[C@H]2[C@H](O)c1ccnc2ccc(OC)cc12 [Quinine, (R)-[(1S,2S,4S,5R)-5-ethenyl-1-azabicyclo [2.2.2]octan-2-yl](6-methoxyquinolin-4-yl)methanol]	-1.00 ± 0.1 °C	–	–	–	IC50 [2, 8]: 164 µM; In Vivo PLD (phospholipidosis [3]): Yes
COc1ccc(C(=O)Nc2ccccc2CCC2CCCCN2C)cc1 (stereo not drawn) [Encainide, 4-methoxy-N-{2-[2-(1-methylpiperidin-2-yl)ethyl]phenyl} benzamide]	-0.76 ± 0.1 °C	–	0.23	–	In Vitro PLD (phospholipidosis [4]): Yes; pKa (basic) [1, 7]: 9.41; IC50 [2, 8]: 76.1 µM
CCN1CCCC1CNC(=O)c1cc(S(=O)(=O)CC)c(N)cc1OC (stereo not drawn) [Amisulpride]	0 °C	1920 µM	0.08	7.05	–
Cn1c(=O)[nH]c2ncn(C)c2c1=O [1,7-Dimethylxanthine]	0 °C	–	0.55	13.5	–
Clc1cccc(Cl)c1N=C1NCCN1 [Clonidine]	-0.62 ± 0.0 °C	–	0.25	8.16	–
Fc1ccc([C@@H]2CCNC[C@H]2COc2ccc3c(c2)OCO3)cc1 [Paroxetine, (3S,4R)-3-[(2H-1,3-benzodioxol-5-yloxy)methyl]-4-(4-fluorophenyl)piperidine]	–	–	–	–	IC50 [2, 8]: 5.12 µM; In Vivo PLD (phospholipidosis [3]): R
CN(Cc1ccc(C(C)(C)C)cc1)Cc1cccc2ccccc12 [Butenafine]	-2.22 ± 0.3 °C	41.2 µM	0.31	9.23	–
O=C1NCC2(CCN(CCc3ccccc3)CC2)O1 [Fenspiride]	-1.67 ± 1.0 °C	–	0.07	9.37	–
O=C(CCCN1CCN(c2ccccn2)CC1)c1ccc(F)cc1 [Azaperone]	0.93 ± 0.1 °C	–	0.43	7.16	–
COc1cc(C(=O)OCCCN2CCCN(CCCOC(=O)c3cc(OC)c(OC)c(OC)c3)CC2)cc(OC)c1OC [Dilazep]	0.11 ± 0.1 °C	59.8 µM	1.17	9.54	–
NC(=O)N1c2ccccc2C=Cc2ccccc21 [Carbamazepine]	-1.26 ± 0.1 °C	106 µM	0.18	-3.8	–
Oc1ncnc2[nH]ncc12 [Allopurinol]	0.67 ± 0.2 °C	–	0.37	2.57	–
Cc1cc(C(C)(C)C)cc(C)c1CC1=NCCN1 [Xylometazoline]	0.66 ± 0.0 °C	44.3 µM	0.16	10.29	–
